Experimental data reported in patent US7691965B2, “Helical synthetic peptides that stimulate cellular cholesterol efflux” (The Regents of the University of California, priority 2002, dated 2010).
Where a SMILES comes first, the peptide text is derived from it.

B1: ARMEEMGSRTRDRLDEVKEQVAEVRAKLEEQAQQIRLQAEAFQARLKSWFEPLVEDMQRQWAGLVEKVQAAVGTSAAPVPSDNH (protein)
chain: ARMEEMGSRTRDRLDEVKEQVAEVRAKLEEQAQQIRLQAEAFQARLKSWFEPLVEDMQRQWAGLVEKVQAAVGTSAAPVPSDNH
modifications: apolipoprotein Apo E, C-terminal domain (aa216-299)
notes: C-terminal domain, amino acid residues 216-299 of Apo E

Assays:
[1] = Relative lipid binding affinity by surface balance technique (monolayer exclusion pressure); assay type: physicochemical; conditions: surface balance technique
Source text: Relative Lipid Binding Affinity, Hydrophobicity, and Amphiphilicity of Synthetic Peptides—In some experiments, the relative lipid binding affinity of unique peptides was quantified using a surface balance technique (Gillotte, K L. et al., J. Biol. Chem., 274:2021-2028 (1999)). For routine analyses, a turbid solution of dimyristoylphosphatidylcholine (DMPC) was used to assess the relative capacity of synthetic peptides to solubilize phospholipid as described (Palgunachari, M. N. et al., Arterioscler. Thromb. Vasc. Biol., 16:328-338 (1996); McLean, L. R. and Hagaman, K. A., Biochim. Biophys. Acta, 1167:289-295 (1993)). The DMPC was used at a final concentration of 0.08 mg/ml in 10 mM Tris-saline (pH 7.4). The final weight ratio of peptides relative to DMPC was 1:1. The absorbance (400 nm) of samples was monitored continuously over a period of 30 min at 25° C. Hydrophobicity of helical peptides was calculated using the consensus scale (Eisenberg D., Annu. Rev. Biochem., 53:593-623 (1984)). The hydrophobic moment (kcal/mol) of synthetic peptides, which is a measure of helix amphiphilicity, was calculated as described by Eisenberg et al. (Eisenberg, D. et al., Nature, 299:371-374 (1982)).

ABCA1 [2] = biological target: T1, ABCA1 (Mus musculus, UniProt P41233); assay: Cellular cholesterol efflux from [3H]cholesterol-labeled J774 macrophages with and without cAMP analog; assay type: cell-based; parameters: endogenous in cells; host or cells: J774 macrophages treated with a cAMP analog (CPT-cAMP or 8-bromo-cAMP); conditions: lipid-free acceptor, J774 macrophages with vs without cAMP analog
Source text: Suitable cholesterol efflux assays are described in, e.g., Bielicki, J. K and Oda, M. N., Biochemistry, 41:2089-2096 (2002); Jia, Z. et al., Biochem. Biophys. Res. Common., 297:206-213 (2002). In some embodiments, a polypeptide known to mediate cholesterol efflux (e.g., helix 9/10 of Apo A-I) is used to screen for additional mediators of cholesterol efflux in a cell based assay. For example, cell lines in which cholesterol efflux can be enhanced using a cAMP analog that up-regulates ABCA1 protein expression (e.g., J774 macrophages) can conveniently be used to assess the ability of an Apo A-I, Apo A-II, Apo A-IV, Apo E, Apo C-I, Apo C-II, Apo C-III, or Serum Amyloid A peptide to mediate cholesterol efflux. The cells are incubated with labeled cholesterol (e.g., [^3H]cholesterol) under conditions appropriate for cholesterol uptake by the cells. cAMP or cAMP analogs (e.g., CPT-cAMP) is incubated with the cells for a suitable time before the initiation of cellular cholesterol efflux, i.e., prior to contacting the cells with helix 9/10 of Apo A-I or the test compound. Measurement of labeled cholesterol appearing in the medium is used to determine the cholesterol efflux mediating activity of the test compound.
Cellular Cholesterol Efflux Protocol—J774 macrophages were used to assess the cholesterol efflux properties of synthetic amphipathic α-helical peptides (Bielicki, J. K and Oda, M. N., Biochemistry, 41:2089-2096 (2002); Jia, Z. et al., Biochem. Biophys. Res. Common., 297:206-213 (2002)). This cell line was chosen because cholesterol efflux can be enhanced using a cAMP analog that up-regulates ABCA1 protein expression. The cells were seeded onto 24-well culture plates and labeled for 48 h with [^3H]cholesterol in RPMI 1640 supplemented with 1% fetal bovine serum. The cAMP analog CPT-cAMP was added (0.3 mM, final concentration) to the cells at least 12 h before the initiation of cellular cholesterol efflux. Synthetic peptides in lipid-free form were added to cells in serum-free RPMI. The lipid-free form of full-length recombinant apoA-I was used as a positive control to define apparent ABCA1-dependent cholesterol efflux in the presence and absence of cAMP stimulation. Efflux results were expressed as a percentage of the initial cellular [^3H] appearing in the medium as a function of time subtracting the background efflux obtained using serum-free medium alone.

ABCA1 [3] = biological target: T1, ABCA1; assay: ABCA1 stabilization: immunoblot of ABCA1 protein in J774 macrophage membranes after cAMP withdrawal; assay type: cell-based; parameters: J774 macrophages were used to assess relative ABCA1 protein levels in the presence and absence of synthetic peptides; endogenous in cells; host or cells: J774 macrophages treated with a cAMP analog (CPT-cAMP or 8-bromo-cAMP); conditions: 20 μg/ml peptide, 6 h without cAMP, J774 macrophages
Description: J774 macrophages were incubated (18 h) with 0.5 mM 8-bromo-cAMP in medium containing 0.1% bovine serum albumin to up-regulate ABCA1 protein expression. Washed cells were subsequently exposed for 6 h to bovine serum albumin medium with (+) or without (−) 8-bromo-cAMP and the indicated synthetic peptides (20 μg/ml). None refers to no peptides. The cellular membrane content of ABCA1 protein was measured by immunoblot analysis.
ABCA1 Stabilization—J774 macrophages were used to assess relative ABCA1 protein levels in the presence and absence of synthetic peptides. Cells were grown in 10% fetal bovine serum, extensively rinsed, and incubated (18 h) with Dulbecco's modified Eagle's medium containing 0.1% bovine serum albumin plus the cAMP analog 8-bromo-cAMP. Cells were next exposed to synthetic peptides or serum-free medium in the absence of the cAMP stimulus to evaluate whether ABCA1 protein was stabilized or degraded. Relative levels of ABCA1 protein were assessed by immunoblot analysis of cell membranes (Oram, J. F. et al., J. Biol. Chem., 278:52379-52385 (2003)). ABCA1 was visualized using an enhanced chemiluminescence detection assay.
To assess ABCA1 stabilization, J774 macrophages were treated with a cAMP analog to up-regulate ABCA1 protein expression and then incubated for 6 h without cAMP. In the absence of inducer, ABCA1 protein is rapidly degraded in these cells (FIG. 9). […] Thus, it appears that the helical combinations that stimulate cholesterol efflux also stabilize the ABCA1 transporter.

T1 sequence (P41233 whole entry): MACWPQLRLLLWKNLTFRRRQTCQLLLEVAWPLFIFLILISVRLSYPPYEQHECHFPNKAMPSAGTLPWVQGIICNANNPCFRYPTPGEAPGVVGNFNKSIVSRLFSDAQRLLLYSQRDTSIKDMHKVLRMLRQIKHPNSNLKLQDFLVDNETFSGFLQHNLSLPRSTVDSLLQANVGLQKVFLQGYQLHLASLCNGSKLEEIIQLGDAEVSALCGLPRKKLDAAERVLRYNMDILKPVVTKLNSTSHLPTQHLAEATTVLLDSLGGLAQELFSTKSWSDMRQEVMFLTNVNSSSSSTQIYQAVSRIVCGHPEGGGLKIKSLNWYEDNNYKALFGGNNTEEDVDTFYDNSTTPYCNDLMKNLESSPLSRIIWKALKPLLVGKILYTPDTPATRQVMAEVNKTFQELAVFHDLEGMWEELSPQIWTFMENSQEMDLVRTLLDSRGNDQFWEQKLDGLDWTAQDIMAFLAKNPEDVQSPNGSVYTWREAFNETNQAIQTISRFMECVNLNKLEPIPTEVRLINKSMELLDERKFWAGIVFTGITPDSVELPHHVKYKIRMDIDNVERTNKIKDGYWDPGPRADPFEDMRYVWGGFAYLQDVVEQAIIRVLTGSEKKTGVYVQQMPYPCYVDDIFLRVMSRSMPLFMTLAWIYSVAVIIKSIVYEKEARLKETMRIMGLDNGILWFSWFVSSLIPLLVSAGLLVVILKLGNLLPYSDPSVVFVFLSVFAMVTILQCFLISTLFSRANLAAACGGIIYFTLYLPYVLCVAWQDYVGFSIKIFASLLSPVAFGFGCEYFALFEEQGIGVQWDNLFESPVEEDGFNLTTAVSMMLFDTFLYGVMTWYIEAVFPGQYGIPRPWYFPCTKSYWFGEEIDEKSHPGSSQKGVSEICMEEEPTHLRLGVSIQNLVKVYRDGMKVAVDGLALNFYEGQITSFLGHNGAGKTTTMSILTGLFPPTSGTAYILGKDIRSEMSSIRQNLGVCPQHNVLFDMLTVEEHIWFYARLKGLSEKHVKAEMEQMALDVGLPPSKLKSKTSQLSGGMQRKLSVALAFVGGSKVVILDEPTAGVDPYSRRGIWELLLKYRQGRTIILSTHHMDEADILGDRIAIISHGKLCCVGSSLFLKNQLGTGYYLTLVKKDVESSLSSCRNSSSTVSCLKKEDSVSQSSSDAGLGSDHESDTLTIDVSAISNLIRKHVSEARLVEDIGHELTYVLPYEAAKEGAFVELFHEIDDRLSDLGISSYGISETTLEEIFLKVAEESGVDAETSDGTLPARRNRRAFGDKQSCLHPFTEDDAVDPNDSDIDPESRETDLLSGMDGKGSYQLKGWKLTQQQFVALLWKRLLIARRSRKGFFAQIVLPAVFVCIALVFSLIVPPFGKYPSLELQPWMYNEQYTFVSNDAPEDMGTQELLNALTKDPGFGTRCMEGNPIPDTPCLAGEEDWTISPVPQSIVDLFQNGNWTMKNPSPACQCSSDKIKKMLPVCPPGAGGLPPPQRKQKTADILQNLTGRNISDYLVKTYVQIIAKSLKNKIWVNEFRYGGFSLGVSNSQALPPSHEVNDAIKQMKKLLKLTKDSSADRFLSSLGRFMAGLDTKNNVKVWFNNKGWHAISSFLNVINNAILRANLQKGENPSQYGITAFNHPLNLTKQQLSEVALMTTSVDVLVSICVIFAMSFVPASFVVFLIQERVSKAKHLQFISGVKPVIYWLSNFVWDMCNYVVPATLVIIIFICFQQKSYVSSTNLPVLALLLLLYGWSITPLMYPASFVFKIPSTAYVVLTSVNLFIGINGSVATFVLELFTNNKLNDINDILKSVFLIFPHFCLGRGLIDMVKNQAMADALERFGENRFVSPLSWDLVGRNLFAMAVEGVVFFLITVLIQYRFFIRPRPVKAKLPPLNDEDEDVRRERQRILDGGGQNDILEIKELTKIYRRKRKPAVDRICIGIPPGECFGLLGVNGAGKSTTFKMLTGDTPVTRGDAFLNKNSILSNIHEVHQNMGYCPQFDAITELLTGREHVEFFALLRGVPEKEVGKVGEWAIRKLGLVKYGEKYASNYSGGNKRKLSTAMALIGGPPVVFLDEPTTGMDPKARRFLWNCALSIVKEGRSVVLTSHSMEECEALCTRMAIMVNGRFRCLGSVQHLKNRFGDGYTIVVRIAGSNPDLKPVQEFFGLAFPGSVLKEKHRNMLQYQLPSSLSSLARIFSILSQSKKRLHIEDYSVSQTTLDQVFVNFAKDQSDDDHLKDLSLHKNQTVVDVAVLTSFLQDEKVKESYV

Molecule	Monolayer exclusion pressure [1]	ABCA1-dependent cholesterol efflux (result in words) (ABCA1 [2])	ABCA1 stabilization (result in words) (ABCA1 [3])	also measured
CSCC[C@H](NC(=O)[C@H](CCC(=O)O)NC(=O)[C@H](CCC(N)=O)NC(=O)[C@H](CCCNC(=N)N)NC(=O)[C@H](CC(C)C)NC(=O)CNC(=O)[C@H](CCC(=O)O)NC(=O)[C@@H](NC(=O)[C@H](CCC(=O)O)NC(=O)[C@H](CCCCN)NC(=O)[C@H](CCC(=O)O)NC(=O)[C@H](CC(C)C)NC(=O)[C@H](CC(N)=O)NC(=O)[C@H](CC(=O)O)NC(=O)[C@H](Cc1c[nH]c2ccccc12)NC(=O)[C@H](Cc1ccccc1)NC(=O)[C@H](CCC(=O)O)NC(=O)[C@H](CCC(N)=O)NC(=O)[C@@H](NC(=O)[C@@H](NC(=O)[C@@H]1CCCN1C(C)=O)C(C)C)[C@@H](C)O)[C@@H](C)O)C(=O)N[C@@H](CO)C(N)=O [Helical peptide 2] (Ac-PVTQEFWDNLEKETEGLRQEMS-NH2)	17 dynes/cm			
CC(=O)N1CCC[C@H]1C(=O)N[C@H](C(=O)N[C@@H](CC(C)C)C(=O)N[C@@H](CCC(=O)O)C(=O)N[C@@H](CO)C(=O)N[C@@H](Cc1ccccc1)C(=O)N[C@@H](CCCCN)C(=O)N[C@H](C(=O)N[C@@H](CO)C(=O)N[C@@H](Cc1ccccc1)C(=O)N[C@@H](CC(C)C)C(=O)N[C@@H](CO)C(=O)N[C@@H](C)C(=O)N[C@@H](CC(C)C)C(=O)N[C@@H](CCC(=O)O)C(=O)N[C@@H](CCC(=O)O)C(=O)N[C@@H](Cc1ccc(O)cc1)C(=O)N[C@H](C(=O)N[C@@H](CCCCN)C(=O)N[C@@H](CCCCN)C(=O)N[C@@H](CC(C)C)C(=O)N[C@@H](CC(N)=O)C(=O)N1CCC[C@H]1C(=O)N[C@@H](C)C(=O)N[C@@H](CC(C)C)C(=O)N[C@@H](CCC(=O)O)C(=O)N[C@@H](CC(=O)O)C(=O)N[C@@H](CC(C)C)C(=O)N[C@@H](CCCNC(=N)N)C(=O)N[C@@H](CCC(N)=O)C(=O)NCC(=O)N[C@@H](CC(C)C)C(=O)N[C@@H](CC(C)C)C(N)=O)[C@@H](C)O)C(C)C)C(C)C [Helical peptide 10/9] (Ac-PVLESFKVSFLSALEEYTKKLNPALEDLRQGLL-NH2)		failed to stimulate ABCA1-dependent cholesterol efflux	failed to prevent ABCA1 degradation	
CC(=O)N1CCC[C@H]1C(=O)N[C@@H](C)C(=O)N[C@@H](CC(C)C)C(=O)N[C@@H](CCC(=O)O)C(=O)N[C@@H](CC(=O)O)C(=O)N[C@@H](CC(C)C)C(=O)N[C@@H](CCCNC(=N)N)C(=O)N[C@@H](CCC(N)=O)C(=O)NCC(=O)N[C@@H](CC(C)C)C(=O)N[C@@H](CC(C)C)C(N)=O [Helical peptide 9] (Ac-PALEDLRQGLL-NH2)		failed to stimulate ABCA1-dependent cholesterol efflux	failed to prevent ABCA1 degradation	
CSCC[C@H](NC(=O)[C@H](CCC(=O)O)NC(=O)[C@H](CCC(=O)O)NC(=O)[C@H](CCC(N)=O)NC(=O)[C@H](Cc1c[nH]c2ccccc12)NC(=O)[C@H](CCCCN)NC(=O)[C@H](CCCCN)NC(=O)[C@H](CCC(N)=O)NC(=O)[C@H](Cc1ccccc1)NC(=O)[C@H](CC(=O)O)NC(=O)[C@H](CC(=O)O)NC(=O)[C@H](CC(C)C)NC(=O)[C@H](Cc1ccc(O)cc1)NC(=O)[C@@H]1CCCN1C(C)=O)C(=O)N[C@@H](CCC(=O)O)C(=O)N[C@@H](CC(C)C)C(=O)N[C@@H](Cc1ccc(O)cc1)C(=O)N[C@@H](CCCNC(=N)N)C(=O)N[C@@H](CCC(N)=O)C(=O)N[C@@H](CCCCN)C(=O)N[C@H](C(=O)N[C@@H](CCC(=O)O)C(=O)N1CCC[C@H]1C(=O)N[C@@H](C)C(=O)N[C@@H](CC(C)C)C(=O)N[C@@H](CCC(=O)O)C(=O)N[C@@H](CC(=O)O)C(=O)N[C@@H](CC(C)C)C(=O)N[C@@H](CCCNC(=N)N)C(=O)N[C@@H](CCC(N)=O)C(=O)NCC(=O)N[C@@H](CC(C)C)C(=O)N[C@@H](CC(C)C)C(N)=O)C(C)C [Helical peptide 4/9] (Ac-PYLDDFQKKWQEEMELYRQKVEPALEDLRQGLL-NH2)		failed to mediate ABCA1-dependent cholesterol efflux		
CSCC[C@H](NC(=O)[C@H](CCC(=O)O)NC(=O)[C@H](CCC(N)=O)NC(=O)[C@H](CCCNC(=N)N)NC(=O)[C@H](CC(C)C)NC(=O)CNC(=O)[C@H](CCC(=O)O)NC(=O)[C@@H](NC(=O)[C@H](CCC(=O)O)NC(=O)[C@H](CCCCN)NC(=O)[C@H](CCC(=O)O)NC(=O)[C@H](CC(C)C)NC(=O)[C@H](CC(N)=O)NC(=O)[C@H](CC(=O)O)NC(=O)[C@H](Cc1c[nH]c2ccccc12)NC(=O)[C@H](Cc1ccccc1)NC(=O)[C@H](CCC(=O)O)NC(=O)[C@H](CCC(N)=O)NC(=O)[C@@H](NC(=O)[C@@H](NC(=O)[C@@H]1CCCN1C(C)=O)C(C)C)[C@@H](C)O)[C@@H](C)O)C(=O)N[C@@H](CO)C(=O)N1CCC[C@H]1C(=O)N[C@@H](C)C(=O)N[C@@H](CC(C)C)C(=O)N[C@@H](CCC(=O)O)C(=O)N[C@@H](CC(=O)O)C(=O)N[C@@H](CC(C)C)C(=O)N[C@@H](CCCNC(=N)N)C(=O)N[C@@H](CCC(N)=O)C(=O)NCC(=O)N[C@@H](CC(C)C)C(=O)N[C@@H](CC(C)C)C(N)=O [Helical peptide 2/9] (Ac-PVTQEFWDNLEKETEGLRQEMSPALEDLRQGLL-NH2)	19 dynes/cm	failed to stimulate ABCA1-dependent cholesterol efflux		
B1				ABCA1-dependent cholesterol efflux (result in words) (ABCA1 [2]; listed as C-terminal domain of apoE): potent stimulator of cholesterol efflux; ABCA1-dependent cholesterol efflux (result in words) (ABCA1 [2]; listed as CT domain): more effective than full-length apoE3
